These results are taken from patent US20190076357A1 (SHANGHAI WEI ER BIOPHARMACEUTICAL TECHNOLOGY CO., LTD., priority 2016, published 2019).

The nature of data set [1]: Solubility in medium chain oil. Format: physicochemical. Particulars: oil or lipid.
A short description of data set [2]: Drug-forming properties of paclitaxel palmitate preparations (dose forms and preparation methods). The settings on record: drug loading 3 mg/mL. The data set is classed as physicochemical. The procedure: 300 mg paclitaxel palmitate, 3.5 g high-purity egg yolk lecithin (EPCS), and 0.3 g DSPE-PEG2000 were weighed out, added with 3 g propylene glycol, and dissolved at 65° C. to obtain an organic phase; 85 g water was weighed out, and dissolved by stirring and heated at 65° C. to obtain an aqueous phase. The organic phase was injected into the aqueous phase by stirring, and mixed to obtain a crude liposome, which was then placed in an extruder, and sequentially extruded through an extrusion film with a pore size of 0.4 μm, 0.2 μm, 0.1 μm, and 0.05 μm, and added with water to 100 ml. pH was adjusted to 4.5 with hydrochloric acid. The filter was sterilized by filtration through a 0.22 μm filter to obtain liposomal paclitaxel palmitate formulations.
0.3 g paclitaxel palmitate and 0.3 g (or 1.5 g, or 3 g, or 6 g, or 9 g) polyethylene glycol monomethyl ether-polylactic acid were weighed out and dissolved in an appropriate amount of acetonitrile. […]

Turning to `CC(=O)O[C@H]1C(=O)[C@@]2(C)[C@H]([C@H](OC(=O)c3ccccc3)[C@]3(O)C[C@H](OC(=O)[C@H](O)[C@@H](NC(=O)c4ccccc4)c4ccccc4)C(C)=C1C3(C)C)[C@]1(OC(C)=O)CO[C@@H]1C[C@@H]2O` [paclitaxel, Paclitaxel], in data set [1], the solubility (in general, how much of the substance goes into solution per volume) was below 5000 µg/mL. The appearance result in data set [2] is “completely clarified”.
